Experimental data published in patent publication US8324194B2, “Combination therapy for the treatment of cancer” (Incyte Corporation, priority 2005, dated 2012).

Assays:
[1] = test system: MCF-7 human breast cancer xenografts; test: Growth of subcutaneous MCF-7 breast cancer xenograft in mice; assay type: in vivo; details: MCF-7 xenograft; for inhibited tumor cell growth over the control group: nu/nu mice, fulvestrant 5 mg SC once per week for four weeks, mean tumor volume vs control group (a)
Description: Human breast cancer cell line MCF-7 was obtained from American Type Tissue Culture Collection (ATCC, Manassas, Va.). Cells were routinely maintained in media recommended by the ATCC with slight modifications. Cells were kept at 37° C. in a humidified incubator supplied with 5% CO2. MCF-7 cells were kept in Eagle's minimal essential medium (ATCC) supplemented with 10% FBS and 0.01 mg/ml bovine insulin.
Animal studies were performed under Animal Welfare Regulation Guidelines in a facility accredited by the Association for the Assessment and Accreditation of Laboratory Animal Care (AAALAC). Balb/c or CD-1 nu/nu mice (Charles River, Wilmington, Mass.) were injected subcutaneously with logarithmically growing cells suspended in either serum free culture media, or a 1:1 mixture media and Matrigel™ (BD Biosciences). The tumor models required implantation (on the same day or one day prior to cell inoculation) of estradiol pellets (17-β estradiol, 0.72 mg/pellet, 60 day release; Innovative Research of American, Sarasota, Fla.). The time in days after injection of the tumor cells into the mice was measured as “days post-inoculation”.
Subcutaneous implantation of osmotic pumps (obtained from Alzet, Cupertino, Calif.) was performed under isofluorane anesthesia following manufacturer's protocol. Subcutaneous pumps (hereinafter “SC pumps”) were used to deliver a solution of Compound 1, or its inert solvent. Fulvestrant, or its inert solvent, was delivered by subcutaneous injection on the dorsal flanks of the animals. Treatment was usually initiated when mean tumor volumes were approximately 150 mm^3 at the beginning of treatment. Ten test animals were included in each treatment group, (a)-(d).
(§1) Tumor size was measured and used to calculate tumor volume for a period of time following the injection of the tumor cells into the mice. Tumor size was measured by using a caliper to measure the length (1) and width (w) of tumors to calculate an approximate volume ((l×w^2)/2). These tumor size measurements and tumor volume calculations were recorded relative to the number of days post-inoculation of the mice with the tumor cells. The frequency of the tumor size measurements varied depending on how quickly the tumors grew in size, with more frequent measurements being taken when the tumors grew quickly. Mean tumor volume was calculated based on the tumor volumes for the ten test animals in each treatment group.
(§2) Treatment group (a) was the control group of test animals. […] Tumor size was measured for each test animal as described above and recorded as a function of the number of days post-inoculation of the mice with the MCF-7 breast cancer cells. Mean tumor volume was then calculated for treatment group (a) and plotted against the number of days post-inoculation as shown in FIG. 1. […]

[2] = test system: BT-474 human breast cancer xenografts; test: Growth of subcutaneous BT-474 breast cancer xenograft in mice; assay type: in vivo; details: BT-474 xenograft; for inhibited tumor cell growth over the control group: nu/nu mice, Compound 1 60 mg/kg/day SC pump for 14 days, fulvestrant 5 mg SC once per week for four weeks, mean tumor volume vs control group (a); for tumor growth delay (TGD, T-C) to 500 cubic mm by linear regression analysis of tumor growth rate: Compound 1 60 mg/kg/day for 14 days, fulvestrant 5 mg weekly x4, projected time
Description: Human breast cancer cell line BT-474 was obtained from American Type Tissue Culture Collection (ATCC, Manassas, Va.). Cells were routinely maintained in media recommended by the ATCC with slight modifications. Cells were kept at 37° C. in a humidified incubator supplied with 5% CO2. BT-474 cells were grown in RPMI 1640 (Invitrogen) supplemented with 10% fetal bovine serum (FBS), 0.01 mg/ml bovine insulin, 10 mM HEPES and 0.1 mM non-essential amino acids.
Animal studies were performed under Animal Welfare Regulation Guidelines in a facility accredited by the Association for the Assessment and Accreditation of Laboratory Animal Care (AAALAC). Balb/c or CD-1 nu/nu mice (Charles River, Wilmington, Mass.) were injected subcutaneously with logarithmically growing cells suspended in either serum free culture media, or a 1:1 mixture media and Matrigel™ (BD Biosciences). The tumor models required implantation (on the same day or one day prior to cell inoculation) of estradiol pellets (17-βestradiol, 0.72 mg/pellet, 60 day release; Innovative Research of American, Sarasota, Fla.). The time in days after injection of the tumor cells into the mice was measured as “days post-inoculation”.
Subcutaneous implantation of osmotic pumps (obtained from Alzet, Cupertino, Calif.) was performed under isofluorane anesthesia following manufacturer's protocol. Subcutaneous pumps were used to deliver a solution of Compound 1, or its inert solvent. Fulvestrant, or its inert solvent, was delivered by subcutaneous injection on the dorsal flanks of the animals. […] Treatment was usually initiated when mean tumor volumes were approximately 150 mm^3 at the beginning of treatment. Ten test animals were included in each Treatment group, (a)-(d).
as §1, with “(l)” for “(1)”, “The frequency of the tumor size measurements varied depending on how quickly the tumors grew in size, with more frequent measurements being taken when the tumors grew quickly.” left out
as §2, with “BT-474” for “MCF-7”, “2.” for “1.”

[3] = Compound 1 60 mg/kg/day SC pump for 14 days

Row | SMILES | inhibited tumor cell growth over the control group [1, 3] [%] | tumor growth delay (TGD, T-C) to 1000 cubic mm, real, not calculated [1, 3] [days] | inhibited tumor cell growth over the control group [2] [%] | tumor growth delay (TGD, T-C) to 500 cubic mm by linear regression analysis of tumor growth rate [2] [days] | calculated tumor growth delay (TGD, T-C) to 1000 cubic mm by linear regression analysis of tumor growth curves ([1]; fulvestrant 5 mg SC weekly x4, alone or with Compound 1 60 mg/kg/day for 14 days, projected time) [days]
1 | COC(=O)N1CC2(CC2)C[C@H](C(=O)NO)[C@H]1C(=O)N1CCN(c2ccccc2)CC1 [Compound 1, methyl (6S,7S)-7-[(hydroxyamino)carbonyl]-6-[(4-phenylpiperazin-1-yl)carbonyl]-5-azaspiro[2.5]octane-5-carboxylate] | 46 | 32 | 33 | 19 | 
2 | C[C@]12CC[C@@H]3c4ccc(O)cc4C[C@@H](CCCCCCCCC[S+]([O-])CCCC(F)(F)C(F)(F)F)[C@H]3[C@@H]1CC[C@@H]2O (some centres unmarked) [fulvestrant] | 52 |  | 46 | 54 | 63
